Laboratory results: PubChem BioAssay AID248 (DTP/NCI, 2004)
Several values for one entry are separate records, joined by “and”; a condition that tells them apart may be missing. Equal entries are not always repeated. Toxic doses and inconclusive results are not listed. Rule as the data show it: active = T/C of 150% or more; inactive = T/C below 125%.

System: L1210 leukemia ip in BDF1 mice, survival T/C
Assay: NCI In Vivo Anticancer Drug Screen. Data for tumor model L1210 Leukemia (intraperitoneal) in B6D2F1 (BDF1) mice
Settings: endpoint: mean survival time, higher = longer survival
Procedure: The antitumor activity of compounds was measured in mice bearing transplantable tumors. Survival or tumor size were measured and the results are expressed as the measurement made in the treated group (T) divided by the measurement made in the vehicle treated control group (C). The tumor model used in this assay is L1210 Leukemia (intraperitoneal) in B6D2F1 (BDF1) mice

[1] = dose: 100.0 mg/kg/injection, schedule: Q01DX001 (ip), vehicle: saline
[2] = dose: 50.0 mg/kg/injection, schedule: Q01DX001 (ip), vehicle: saline
[3] = dose: 200.0 mg/kg/injection, schedule: Q01DX001 (ip), vehicle: saline
[4] = dose: 400.0 mg/kg/injection, schedule: Q01DX001 (ip), vehicle: saline
[5] = dose: 5.0 mg/kg/injection, schedule: Q01DX001 (ip), vehicle: other
[6] = dose: 10.0 mg/kg/injection, schedule: Q01DX001 (ip), vehicle: other
[7] = dose: 15.0 mg/kg/injection, schedule: Q04DX003 (ip), vehicle: Klucel (hydroxypropylcellulose) (HPC)
[8] = dose: 20.0 mg/kg/injection, schedule: Q01DX001 (ip), vehicle: other
[9] = dose: 100.0 mg/kg/injection, schedule: Q04DX003 (ip), vehicle: Klucel (hydroxypropylcellulose) (HPC)
[10] = dose: 200.0 mg/kg/injection, schedule: Q04DX003 (ip), vehicle: Klucel (hydroxypropylcellulose) (HPC)
[11] = dose: 400.0 mg/kg/injection, schedule: Q04DX003 (ip), vehicle: Klucel (hydroxypropylcellulose) (HPC)
[12] = dose: 100.0 mg/kg/injection, schedule: Q04DX002 (ip), vehicle: saline with Tween-80
[13] = dose: 200.0 mg/kg/injection, schedule: Q04DX002 (ip), vehicle: saline with Tween-80
[14] = dose: 400.0 mg/kg/injection, schedule: Q04DX002 (ip), vehicle: saline with Tween-80
[15] = dose: 100.0 mg/kg/injection, schedule: Q04DX003 (ip), vehicle: saline
[16] = dose: 100.0 mg/kg/injection, schedule: Q01DX009 (ip), vehicle: saline with Tween-80
[17] = dose: 200.0 mg/kg/injection, schedule: Q01DX009 (ip), vehicle: saline with Tween-80
[18] = dose: 100.0 mg/kg/injection, schedule: Q04DX003 (ip), vehicle: saline with Tween-80
[19] = dose: 200.0 mg/kg/injection, schedule: Q04DX003 (ip), vehicle: saline with Tween-80
[20] = dose: 400.0 mg/kg/injection, schedule: Q01DX009 (ip), vehicle: saline with Tween-80
[21] = dose: 400.0 mg/kg/injection, schedule: Q04DX003 (ip), vehicle: saline with Tween-80
[22] = dose: 100.0 mg/kg/injection, schedule: Q01DX009 (ip), vehicle: Klucel (hydroxypropylcellulose) (HPC)
[23] = dose: 200.0 mg/kg/injection, schedule: Q01DX009 (ip), vehicle: Klucel (hydroxypropylcellulose) (HPC)
[24] = dose: 400.0 mg/kg/injection, schedule: Q01DX009 (ip), vehicle: Klucel (hydroxypropylcellulose) (HPC)

Measured: T/C

Cc1cc(C)c(CCl)c(C)c1CCl
inactive: [1] 119 % of control

BrCc1ccc(-c2ccccc2)cc1
inactive: dose: 5.0 mg/kg/injection, schedule: Q01DX009 (ip), vehicle: Klucel (hydroxypropylcellulose) (HPC) 96 % of control | dose: 5.0 mg/kg/injection, schedule: Q04DX003 (ip), vehicle: Klucel (hydroxypropylcellulose) (HPC) 92 % of control | dose: 10.0 mg/kg/injection, schedule: Q01DX009 (ip), vehicle: Klucel (hydroxypropylcellulose) (HPC) 93 % of control | dose: 10.0 mg/kg/injection, schedule: Q04DX003 (ip), vehicle: Klucel (hydroxypropylcellulose) (HPC) 97 % of control | dose: 20.0 mg/kg/injection, schedule: Q01DX009 (ip), vehicle: Klucel (hydroxypropylcellulose) (HPC) 98 % of control | dose: 20.0 mg/kg/injection, schedule: Q04DX003 (ip), vehicle: Klucel (hydroxypropylcellulose) (HPC) 93 % of control

C1CSP(SCCSP2SCCS2)S1
inactive: dose: 25.0 mg/kg/injection, schedule: Q01DX009 (ip), vehicle: carboxymethylcellulose (CMC) 87 % of control and 88 % of control | dose: 25.0 mg/kg/injection, schedule: Q04DX002 (ip), vehicle: carboxymethylcellulose (CMC) 95 % of control and 90 % of control | dose: 50.0 mg/kg/injection, schedule: Q01DX009 (ip), vehicle: carboxymethylcellulose (CMC) 95 % of control | dose: 50.0 mg/kg/injection, schedule: Q04DX002 (ip), vehicle: carboxymethylcellulose (CMC) 97 % of control and 90 % of control | dose: 100.0 mg/kg/injection, schedule: Q01DX009 (ip), vehicle: carboxymethylcellulose (CMC) 95 % of control and 91 % of control | dose: 200.0 mg/kg/injection, schedule: Q04DX002 (ip), vehicle: carboxymethylcellulose (CMC) 94 % of control

O=C(CCCC(=O)NNC(=O)Nc1cc(Cl)ccc1Cl)NNC(=O)Nc1cc(Cl)ccc1Cl
inactive: [2] 108 % of control | [1] 102 % of control | [3] 102 % of control | [4] 102 % of control

C/C=C(/C)C(=O)O[C@H]1CCN2CC=C(COC(=O)[C@@](O)([C@H](C)OC)C(C)(C)O)[C@H]12
inactive: [5] 100 % of control | dose: 7.5 mg/kg/injection, schedule: Q04DX003 (ip), vehicle: Klucel (hydroxypropylcellulose) (HPC) 97 % of control | [6] 105 % of control | [7] 103 % of control | [8] 100 % of control | dose: 30.0 mg/kg/injection, schedule: Q04DX003 (ip), vehicle: Klucel (hydroxypropylcellulose) (HPC) 103 % of control | dose: 40.0 mg/kg/injection, schedule: Q01DX001 (ip), vehicle: other 102 % of control | dose: 60.0 mg/kg/injection, schedule: Q04DX003 (ip), vehicle: Klucel (hydroxypropylcellulose) (HPC) 97 % of control | dose: 80.0 mg/kg/injection, schedule: Q01DX001 (ip), vehicle: other 103 % of control

CC(O)COC(C)C (stereo unspecified)
inactive: [1] 98 % of control | [3] 89 % of control | [4] 96 % of control

CC(=O)O[C@H]1[C@H]2O[C@]23[C@@H]2CC[C@@H]4C[C@@H](O)CC[C@]4(C)[C@H]2CC[C@]3(C)[C@H]1c1ccc(=O)oc1
inactive: dose: 3.75 mg/kg/injection, schedule: Q01DX009 (ip), vehicle: Klucel (hydroxypropylcellulose) (HPC) 110 % of control | [5] 103 % of control | dose: 7.5 mg/kg/injection, schedule: Q01DX009 (ip), vehicle: Klucel (hydroxypropylcellulose) (HPC) 98 % of control | [6] 103 % of control | [7] 98 % of control | [8] 97 % of control

CCCCCCCCCCCCCSCCSCCCCCCCCCCCCC
inactive: dose: 100.0 mg/kg/injection, schedule: Q01DX001 (ip), vehicle: Klucel (hydroxypropylcellulose) (HPC) 96 % of control | dose: 200.0 mg/kg/injection, schedule: Q01DX001 (ip), vehicle: Klucel (hydroxypropylcellulose) (HPC) 86 % of control | dose: 400.0 mg/kg/injection, schedule: Q01DX001 (ip), vehicle: Klucel (hydroxypropylcellulose) (HPC) 96 % of control

ONc1ccccn1
inactive: [1] 95 % of control | [3] 95 % of control

Cc1ccc(NC(=O)Nc2ccccc2C(N)=O)c([N+](=O)[O-])c1
inactive: [9] 90 % of control | [10] 87 % of control | [11] 90 % of control

CCCCCCCCC1SC(=S)NC1CCCCCCCC(=O)OC (stereo unspecified)
inactive: [12] 96 % of control | [13] 100 % of control | [14] 100 % of control

NC(=O)C1C(=O)OC2(CC2)C1c1ccccc1 (stereo unspecified)
inactive: [1] 86 % of control | [3] 93 % of control

OCC1CC[N-]CC1.OCC1CC[N-]CC1.[Cl][Pt+2]([Cl])([Cl])[Cl]
inactive: dose: 12.5 mg/kg/injection, schedule: Q01DX009 (ip), vehicle: saline 105 % of control | dose: 25.0 mg/kg/injection, schedule: Q01DX009 (ip), vehicle: saline 94 % of control | dose: 25.0 mg/kg/injection, schedule: Q04DX003 (ip), vehicle: saline 94 % of control | dose: 50.0 mg/kg/injection, schedule: Q01DX009 (ip), vehicle: saline 103 % of control | dose: 50.0 mg/kg/injection, schedule: Q04DX003 (ip), vehicle: saline 107 % of control | [15] 104 % of control

Cc1cc(C(C)(C)C)ccc1S(=O)(=O)C1CC1c1ccccc1 (stereo unspecified)
inactive: [1] 98 % of control | [3] 102 % of control | [4] 98 % of control

O=C(Nc1ccc(Nc2ccccc2)cc1)Nc1cccc(F)c1
inactive: [16] 88 % of control | [17] 96 % of control

CCOC(=O)c1ccc(N2C(C#N)c3ccccc3OC2c2ccccc2O)cc1 (stereo unspecified)
inactive: dose: 100.0 mg/kg/injection, schedule: Q01DX001 (ip), vehicle: saline with Tween-80 91 % of control | [16] 93 % of control and 106 % of control | [12] 95 % of control and 92 % of control | [18] 90 % of control | dose: 200.0 mg/kg/injection, schedule: Q01DX001 (ip), vehicle: saline with Tween-80 88 % of control | [17] 94 % of control and 90 % of control | [13] 95 % of control and 97 % of control | [19] 97 % of control | dose: 400.0 mg/kg/injection, schedule: Q01DX001 (ip), vehicle: saline with Tween-80 88 % of control | [20] 94 % of control and 87 % of control | [14] 95 % of control and 100 % of control | [21] 89 % of control

COc1cc([N+](=O)[O-])c(N)c([N+](=O)[O-])c1
inactive: [2] 96 % of control | [1] 108 % of control | [3] 96 % of control | [4] 93 % of control

c1ccc2c(c1)C1c3cccc[n+]3C2CC1n1c2ccccc2c2ccccc21 (stereo unspecified)
inactive: dose: 12.5 mg/kg/injection, schedule: Q01DX009 (ip), vehicle: Klucel (hydroxypropylcellulose) (HPC) 106 % of control | dose: 12.5 mg/kg/injection, schedule: Q04DX003 (ip), vehicle: Klucel (hydroxypropylcellulose) (HPC) 111 % of control | dose: 25.0 mg/kg/injection, schedule: Q01DX009 (ip), vehicle: Klucel (hydroxypropylcellulose) (HPC) 106 % of control | dose: 25.0 mg/kg/injection, schedule: Q04DX003 (ip), vehicle: Klucel (hydroxypropylcellulose) (HPC) 106 % of control | dose: 50.0 mg/kg/injection, schedule: Q04DX003 (ip), vehicle: Klucel (hydroxypropylcellulose) (HPC) 91 % of control | [22] 102 % of control | [15] 93 % of control | [23] 94 % of control | dose: 200.0 mg/kg/injection, schedule: Q04DX003 (ip), vehicle: saline 98 % of control | [24] 94 % of control | dose: 400.0 mg/kg/injection, schedule: Q04DX003 (ip), vehicle: saline 94 % of control

CCOC(=O)c1c(C)[nH]c(C)c1-c1ccccc1
inactive: [9] 112 % of control | [10] 104 % of control | [11] 105 % of control

CC(=O)OC1CCCC23CC(CC12)C(C)(C)C3Br (stereo unspecified)
inactive: [22] 95 % of control | [9] 97 % of control | [23] 100 % of control | [10] 93 % of control | [24] 97 % of control | [11] 95 % of control

CCOC(=O)Nc1cc(Cl)c(N)c(NC(=O)OCC)n1
inactive: [16] 94 % of control | [18] 98 % of control | [17] 100 % of control | [19] 93 % of control | [20] 97 % of control | [21] 100 % of control
